Entries after “also recorded” stand apart in the source; their conditions may differ.
Tested on: formalin-treated mice
Assay: Formalin assay, licking behaviour
Assay type: in vivo
Details: 30 mg/kg i.p. 30 min before formalin injection
Method: The formalin assay in mice is a valid and reliable behavioral model of nociception and is sensitive to various classes of analgesic drugs (Hunskaar S & Hole K, Pain. 1987, 30(1):103-14.) The noxious stimulus consists of a subcutaneous or an intraplantar injection of 10 μl diluted formalin (2% in saline) into the left hind paw. The response is licking and flinching of the injected paw.
Age, sex and weight matched wildtype mice (C3HeB/FeJ) were used in this assay. Prior to formalin injection, the animals were randomly subdivided into experimental groups of 10 animals each. […]
For formalin injection, the mouse was held with a paper towel in order to avoid disturbance of the injection by movements. […] The behavior of the formalin- and CDK-inhibitor-treated mice was analyzed as described below.
The behaviour of the formalin-treated mice, i.e. licking and flinching, was monitored by an automated tracking system (Ethovision 3.0 Color Pro, Noldus, Wageningen, Netherlands) over a defined period of time: measurement was initiated 5 min after formalin injection and terminated 30 min after formalin injection. […]
As another possibility of assay read-out, the licking behaviour of the individual animals was tracked manually based on video files. Licking times were recorded over 30 minutes after formalin injection and subdivided for three different licking zones (dorsum, plantar, toes). […]

With COc1ccccc1-c1cc(Nc2cccc(S(N)(=O)=O)c2)ncn1 [Compound A] the “fluorescent dot size of the formalin-treated paw” value was “no significant reduction of fluorescent dot size” and the licking time (vs vehicle, 30 mg/kg) was “reduction in licking time; also recorded: clearly reduced”.

Reference: US20090221581A1, “Methods of treating pain” (priority 2005, published 2009)
